# Data: publication PMC8405091, “Microwave-assisted Phospha-Michael addition reactions in the 13α-oestrone series and in vitro antiproliferative properties” (Journal of Enzyme Inhibition and Medicinal Chemistry, 2021)
# Like-named read-outs stand apart in the source and are kept apart here.
# Tests used:
# UPCI-SCC-131 cells = assay: MTT antiproliferative assay, UPCI-SCC-131; assay type: cell-based, human; details: for Growth inhibition; % ± SEM / inhibition at 10 µM / inhibition at 30 µM: 72 h; for IC50: UPCI-SCC-131, 72 h, read-out: calculated IC50 value; for inhibition at 10 µM / inhibition at 30 µM: read-out: Growth inhibition, % ± SEM
# Procedure: (§1) The antiproliferative properties of the newly synthesized compounds (9–20) and their starting materials (4 and 5) were determined on a panel of human adherent cancer cell lines. MCF-7, MDA-MB-231 and T47D were isolated from breast cancers differing in biochemical background, while A2780 cells were isolated from ovarian cancer. HeLa and SiHa are cervical cancer cell lines positive for HPV-18 and HPV-16, respectively, while C33-A cervical cancer cells are negative for HPV. Moreover, two oropharyngeal cancer cell lines were also utilized: the HPV-negative UPCI-SCC-131 and HPV-16 positive UPCI-SCC-154. The cancer selectivity of compounds was tested on the non-cancerous mouse embryo fibroblast cell line NIH/3T3. All cell lines were purchased from European Collection of Cell Cultures (ECCAC, Salisbury, UK) exception for SiHa and C33-A (American Tissue Culture Collection, Manassas, VA, USA) and HN-SCC-131 and UPCI-SCC-154 (German Collection of Microorganisms and Cell Cultures GmbH, Braunschweig, Germany). Cells were cultivated in minimal essential medium supplemented with 10% fetal bovine serum, 1% non-essential amino acids and an antibiotic–antimycotic mixture. The medium of oropharyngeal cancer cells additionally contained 2.0 mM L-glutamine. All media and supplements were obtained from Lonza Group Ltd., Basel, Switzerland. Near-confluent cancer cells were seeded onto a 96-well microplate at a density of 5,000 cells/well, except for C33-A which were seeded at 10,000/well. After overnight standing, new medium containing the tested compounds at 10 and 30 µM final concentration was added. After incubation for 72 h at 37 °C in humidified air containing 5% CO2, the living cells were assayed by the addition of 20 μL of 5 mg/ml 3-(4,5-dimethylthiazol-2-yl)-2,5-diphenyltetrazolium bromide (MTT) solution. MTT was converted by intact mitochondrial reductase and precipitated as purple crystals during a 4-h contact period. The medium was next removed and the precipitated formazan crystals were dissolved in 100 μL of DMSO during a 60-min period of shaking at 37 ^оC.
# (§2) All in vitro experiments were carried out twice with five parallels. Stock solutions of the tested substances (10 mM) were prepared in DMSO. […] Cisplatin (Ebewe Pharma GmbH, Unterach, Austria) was used as positive control.
# UPCI-SCC-154 cells = assay: MTT antiproliferative assay, UPCI-SCC-154; assay type: cell-based, human; details: for Growth inhibition; % ± SEM / inhibition at 10 µM / inhibition at 30 µM: 72 h; for IC50: UPCI-SCC-154, 72 h, read-out: calculated IC50 value; for inhibition at 10 µM / inhibition at 30 µM: read-out: Growth inhibition, % ± SEM
# Procedure: as §1, §2
# HeLa cells = assay: MTT antiproliferative assay, HeLa; assay type: cell-based, human; details: 72 h; for IC50: read-out: calculated IC50 value; for inhibition at 10 µM / inhibition at 30 µM: read-out: Growth inhibition, % ± SEM
# Procedure: as §1, §2
# SiHa cells = assay: MTT antiproliferative assay, SiHa; assay type: cell-based, human; details: 72 h; for IC50: read-out: calculated IC50 value; for inhibition at 10 µM / inhibition at 30 µM: read-out: Growth inhibition, % ± SEM
# Procedure: as §1, §2
# C33-A cells = assay: MTT antiproliferative assay, C33-A; assay type: cell-based, human; details: C33-A, 72 h; for IC50: read-out: calculated IC50 value; for inhibition at 10 µM / inhibition at 30 µM: read-out: Growth inhibition, % ± SEM
# Procedure: as §1, §2
# A2780 cells = assay: MTT antiproliferative assay, A2780; assay type: cell-based, human; details: for Growth inhibition; % ± SEM / inhibition at 10 µM / inhibition at 30 µM: 72 h; for IC50: A2780, 72 h, read-out: calculated IC50 value; for inhibition at 10 µM / inhibition at 30 µM: read-out: Growth inhibition, % ± SEM
# Procedure: as §1, §2
# MCF-7 cells = assay: MTT antiproliferative assay, MCF-7; assay type: cell-based, human; details: for Growth inhibition; % ± SEM / inhibition at 10 µM / inhibition at 30 µM: 72 h; for IC50: MCF-7, 72 h, read-out: calculated IC50 value; for inhibition at 10 µM / inhibition at 30 µM: read-out: Growth inhibition, % ± SEM
# Procedure: as §1, §2
# MDA-MB-231 cells = assay: MTT antiproliferative assay, MDA-MB-231; assay type: cell-based, human; details: for Growth inhibition; % ± SEM / inhibition at 10 µM / inhibition at 30 µM: 72 h; for IC50: MDA-MB-231, 72 h, read-out: calculated IC50 value; for inhibition at 10 µM / inhibition at 30 µM: read-out: Growth inhibition, % ± SEM
# Procedure: as §1, §2
# T47D cells = assay: MTT antiproliferative assay, T47D; assay type: cell-based, human; details: 72 h; for IC50: read-out: calculated IC50 value; for inhibition at 10 µM / inhibition at 30 µM: read-out: Growth inhibition, % ± SEM
# Procedure: as §1, §2
# [1] = system: non-cancerous mouse embryo fibroblast (NIH/3T3) cells; assay: MTT assay on non-cancerous fibroblasts (tumour selectivity); assay type: cell-based; details: for Growth inhibition; % ± SEM / inhibition at 10 µM / inhibition at 30 µM: 72 h; for IC50: NIH/3T3, 72 h, read-out: calculated IC50 value; for inhibition at 10 µM / inhibition at 30 µM: read-out: Growth inhibition, % ± SEM
# Procedure: as §1, §2
# [2] = Homo sapiens, UPCI-SCC-131, 10 μM
# [3] = Homo sapiens, UPCI-SCC-131, 30 μM
# [4] = Homo sapiens, UPCI-SCC-154, 10 μM
# [5] = Homo sapiens, UPCI-SCC-154, 30 μM
# [6] = Homo sapiens, MCF7, MCF-7, 10 μM
# [7] = Homo sapiens, MCF7, MCF-7, 30 μM
# [8] = Homo sapiens, MDA-MB-231, 10 μM
# [9] = Homo sapiens, MDA-MB-231, 30 μM
# [10] = Mus musculus, NIH3T3, NIH/3T3, 10 μM
# [11] = Mus musculus, NIH3T3, NIH/3T3, 30 μM
smiles,measurement,setting,value
"N.N.[Cl][Pt][Cl] [CIS, Cisplatin, reference compound]",Growth inhibition; % ± SEM,"UPCI-SCC-131 cells; UPCI-SCC-131, 10 μM",95.63 ± 1.49%
same,Growth inhibition; % ± SEM,"UPCI-SCC-131 cells; UPCI-SCC-131, 30 μM",95.09 ± 1.57%
same,IC50,UPCI-SCC-131 cells,1220 nM
same,Growth inhibition; % ± SEM,"UPCI-SCC-154 cells; UPCI-SCC-154, 10 μM",87.40 ± 1.72%
same,Growth inhibition; % ± SEM,"UPCI-SCC-154 cells; UPCI-SCC-154, 30 μM",92.72 ± 1.67%
same,IC50,UPCI-SCC-154 cells,1.29 µM
same,Growth inhibition; % ± SEM,HeLa cells; 10 μM,42.61 ± 2.33%
same,Growth inhibition; % ± SEM,HeLa cells; 30 μM,99.93 ± 0.26%
same,IC50,HeLa cells,12.4 µM
same,Growth inhibition; % ± SEM,SiHa cells; 10 μM,88.64 ± 0.50%
same,Growth inhibition; % ± SEM,SiHa cells; 30 μM,90.18 ± 1.78%
same,IC50,SiHa cells,7.84 µM
same,Growth inhibition; % ± SEM,C33-A cells; 10 μM,85.98 ± 1.05%
same,Growth inhibition; % ± SEM,C33-A cells; 30 μM,98.66 ± 0.21%
same,IC50,C33-A cells,4.13 µM
same,Growth inhibition; % ± SEM,"A2780 cells; A2780, 10 μM",83.6 ± 1.2%
same,Growth inhibition; % ± SEM,"A2780 cells; A2780, 30 μM",95.0 ± 0.3%
same,IC50,A2780 cells,1.3 µM
same,Growth inhibition; % ± SEM,"MCF-7 cells; MCF-7, 10 μM",66.91 ± 1.81%
same,Growth inhibition; % ± SEM,"MCF-7 cells; MCF-7, 30 μM",96.80 ± 0.35%
same,IC50,MCF-7 cells,5.78 µM
same,Growth inhibition; % ± SEM,"MDA-MB-231 cells; MDA-MB-231, 10 μM",– (Inhibition values <20% are not presented.)
same,Growth inhibition; % ± SEM,"MDA-MB-231 cells; MDA-MB-231, 30 μM",71.47 ± 1.20%
same,IC50,MDA-MB-231 cells,19.1 µM
same,Growth inhibition; % ± SEM,T47D cells; 10 μM,40.41 ± 1.25%
same,Growth inhibition; % ± SEM,T47D cells; 30 μM,56.84 ± 1.16%
same,IC50,T47D cells,19.2 µM
same,Growth inhibition; % ± SEM,"[1]; NIH/3T3, 10 μM",76.74 ± 1.26%
same,Growth inhibition; % ± SEM,"[1]; NIH/3T3, 30 μM",96.90 ± 0.25%
same,IC50,[1],4730 nM
"C=C1C[C@H]2[C@@H]3CCc4cc(OC)ccc4[C@H]3CC[C@@]2(C)C1=O [Compound 4, 3-methoxy-16-methylene derivative]",inhibition at 10 µM,UPCI-SCC-131 cells; [2],99.8 ± 0.36%
same,inhibition at 30 µM,UPCI-SCC-131 cells; [3],99.88 ± 0.39%
same,IC50,UPCI-SCC-131 cells; Homo sapiens,3170 nM
same,inhibition at 10 µM,UPCI-SCC-154 cells; [4],97.3 ± 1.1%
same,inhibition at 30 µM,UPCI-SCC-154 cells; [5],97.81 ± 0.65%
same,IC50,UPCI-SCC-154 cells; Homo sapiens,5.15 µM
same,inhibition at 10 µM,"HeLa cells; Homo sapiens, 10 μM",85.1 ± 2.44%
same,inhibition at 30 µM,"HeLa cells; Homo sapiens, 30 μM",99.43 ± 0.28%
same,IC50,HeLa cells; Homo sapiens,4.45 µM
same,inhibition at 10 µM,"SiHa cells; Homo sapiens, 10 μM",97.44 ± 0.54%
same,inhibition at 30 µM,"SiHa cells; Homo sapiens, 30 μM",99.28 ± 0.42%
same,IC50,SiHa cells; Homo sapiens,3.31 µM
same,inhibition at 10 µM,"C33-A cells; Homo sapiens, C-33-A, 10 μM",99.57 ± 0.61%
same,inhibition at 30 µM,"C33-A cells; Homo sapiens, C-33-A, 30 μM",99.55 ± 0.39%
same,IC50,"C33-A cells; Homo sapiens, C-33-A",3.6 µM
same,IC50,A2780 cells; Homo sapiens,6.24 µM
same,inhibition at 10 µM,"A2780 cells; Homo sapiens, A2780, 10 μM",96.9 ± 1.52%
same,inhibition at 30 µM,"A2780 cells; Homo sapiens, A2780, 30 μM",100.5 ± 0.22%
same,inhibition at 10 µM,MCF-7 cells; [6],99.52 ± 0.51%
same,inhibition at 30 µM,MCF-7 cells; [7],99.83 ± 0.44%
same,IC50,"MCF-7 cells; Homo sapiens, MCF7",3.7 µM
same,IC50,MDA-MB-231 cells; Homo sapiens,3.97 µM
same,inhibition at 10 µM,MDA-MB-231 cells; [8],99.97 ± 0.71%
same,inhibition at 30 µM,MDA-MB-231 cells; [9],94.6 ± 2.26%
same,inhibition at 10 µM,"T47D cells; Homo sapiens, 10 μM",99.68 ± 0.74%
same,inhibition at 30 µM,"T47D cells; Homo sapiens, 30 μM",99.92 ± 0.71%
same,IC50,T47D cells; Homo sapiens,3.46 µM
same,inhibition at 10 µM,[1]; [10],101.1 ± 0.67%
same,inhibition at 30 µM,[1]; [11],100.9 ± 0.71%
same,IC50,"[1]; Mus musculus, NIH3T3",2790 nM
C=C1C[C@H]2[C@@H]3CCc4cc(OCc5ccccc5)ccc4[C@H]3CC[C@@]2(C)C1=O [Compound 5],inhibition at 10 µM,UPCI-SCC-131 cells; [2],99.54 ± 0.33%
same,inhibition at 30 µM,UPCI-SCC-131 cells; [3],99.94 ± 0.44%
same,IC50,UPCI-SCC-131 cells; Homo sapiens,2380 nM
same,inhibition at 10 µM,UPCI-SCC-154 cells; [4],96.4 ± 0.89%
same,inhibition at 30 µM,UPCI-SCC-154 cells; [5],100.3 ± 0.82%
same,IC50,UPCI-SCC-154 cells; Homo sapiens,4.5 µM
same,inhibition at 10 µM,"HeLa cells; Homo sapiens, 10 μM",75.1 ± 3.73%
same,inhibition at 30 µM,"HeLa cells; Homo sapiens, 30 μM",99.65 ± 0.25%
same,IC50,HeLa cells; Homo sapiens,6.99 µM
same,inhibition at 10 µM,"SiHa cells; Homo sapiens, 10 μM",98.98 ± 0.26%
same,inhibition at 30 µM,"SiHa cells; Homo sapiens, 30 μM",99.97 ± 0.42%
same,IC50,SiHa cells; Homo sapiens,2.3 µM
same,inhibition at 10 µM,"C33-A cells; Homo sapiens, C-33-A, 10 μM",93.9 ± 2.56%
same,inhibition at 30 µM,"C33-A cells; Homo sapiens, C-33-A, 30 μM",100 ± 0.23%
same,IC50,"C33-A cells; Homo sapiens, C-33-A",3.75 µM
same,IC50,A2780 cells; Homo sapiens,6.7 µM
same,inhibition at 10 µM,"A2780 cells; Homo sapiens, A2780, 10 μM",94.8 ± 2.13%
same,inhibition at 30 µM,"A2780 cells; Homo sapiens, A2780, 30 μM",100.9 ± 0.18%
same,inhibition at 10 µM,MCF-7 cells; [6],99.7 ± 0.43%
same,inhibition at 30 µM,MCF-7 cells; [7],100.6 ± 0.31%
same,IC50,"MCF-7 cells; Homo sapiens, MCF7",3.35 µM
same,IC50,MDA-MB-231 cells; Homo sapiens,4.07 µM
same,inhibition at 10 µM,MDA-MB-231 cells; [8],97.2 ± 1.46%
same,inhibition at 30 µM,MDA-MB-231 cells; [9],98.57 ± 0.89%
same,inhibition at 10 µM,"T47D cells; Homo sapiens, 10 μM",100.2 ± 0.28%
same,inhibition at 30 µM,"T47D cells; Homo sapiens, 30 μM",101.3 ± 0.47%
same,IC50,T47D cells; Homo sapiens,3.47 µM
same,inhibition at 10 µM,[1]; [10],100.8 ± 0.16%
same,inhibition at 30 µM,[1]; [11],100.3 ± 0.25%
same,IC50,"[1]; Mus musculus, NIH3T3",2740 nM
